Experimental data taken from US20240246940A1, “HETEROARYL DERIVATIVE COMPOUND AND USE THEREOF” (VORONOI INC., priority 2021, published 2024).

Legend:
[1] = system: HaCaT cells (EGFR expressing cell line); assay: HaCaT cell proliferation inhibitory activity (CellTiter-Glo, 72 hours); assay type: cell-based; details: Homo sapiens
Summary of the method: (§1)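 Three independent repeats measured growth inhibition across 11 concentrations. The top final concentration was 10 μM for SK-BR-3 and BT-474, 5 μM for N-87 and 45 μM for HaCaT. Growth relative to control, read by luminescence, yielded GI50.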

[2] = system: SK-BR-3 cells (HER2 overexpressing cell line); assay: SK-BR-3 cell proliferation inhibitory activity (CellTiter-Glo, 120 hours); assay type: cell-based; details: Homo sapiens
Summary of the method: as §1

| SMILES | GI50 [2] [nM] | GI50 [1] [nM] |
| --- | --- | --- |
| C=CC(=O)N1CC(Oc2cc3c(Nc4cc(-c5ccc(F)cc5C)ccc4OC)ncnc3cc2OC)C1 [Example 25, 1-(3-((4-((4'-fluoro-4-methoxy-2′-methyl-[1,1′-biphenyl]-3-yl)amino)-7-methoxy-quinazolin-6-yl)oxy)azetidin-1-yl)prop-2-en-1-one] | ≤ 150 | ≤ 150 |
| C=CC(=O)N1CC(Oc2cc3c(Nc4cc(-c5cc(F)cc(F)c5)ccc4OC)ncnc3cc2OC)C1 [Example 11, 1-(3-((4-((3′,5′-difluoro-4-methoxy-[1,1′-biphenyl]-3-yl)amino)-7-methoxy-quinazolin-6-yl)oxy)azetidin-1-yl)prop-2-en-1-one] | 150 to 1000 | ≤ 150 |
| C=CC(=O)N1CC(Oc2cc3c(Nc4cc(-c5ccc(F)c(F)c5)ccc4OC)ncnc3cc2OC)C1 [Example 29, 1-(3-((4-((3′,4′-difluoro-4-methoxy-[1,1′-biphenyl]-3-yl)amino)-7-methoxy-quinazolin-6-yl)oxy)azetidin-1-yl)prop-2-en-1-one] | ≤ 150 | ≤ 150 |
| C=CC(=O)N1CCC(Oc2cc3c(Nc4cc(-c5cnco5)ccc4OC)ncnc3cc2OC)CC1 [Example 130, 1-(4-((7-methoxy-4-((2-methoxy-5-(oxazol-5-yl)phenyl)amino)quinazolin-6-yl)oxy)piperidin-1-yl)prop-2-en-1-one] | 150 to 1000 | 150 to 1000 |
| C=CC(=O)N1CCC(Oc2cc3c(Nc4cc(-c5ccco5)ccc4OC)ncnc3cc2OC)C(F)(F)C1 (stereo not drawn) [Example 111, 1-(3,3-difluoro-4-((4-((5-(furan-2-yl)-2-methoxyphenyl)amino)-7-methoxy-quinazolin-6-yl)oxy)piperidin-1-yl)prop-2-en-1-one] | ≤ 150 | ≤ 150 |
| C=CC(=O)N1CC(Oc2cc3c(Nc4cc(-c5ccc(Cl)cc5F)ccc4OC)ncnc3cc2OC)C1 [Example 15, 1-(3-((4-((4′-chloro-2′-fluoro-4-methoxy-[1,1′-biphenyl]-3-yl)amino)-7-methoxy-quinazolin-6-yl)oxy)azetidin-1-yl)prop-2-en-1-one] | ≤ 150 | ≤ 150 |
| C=CC(=O)N1CC(Oc2cc3c(Nc4cc(-c5ccoc5C)ccc4OC)ncnc3cc2OC)C1 [Example 51, 1-(3-((7-methoxy-4-((2-methoxy-5-(2-methylfuran-3-yl)phenyl)amino)quinazolin-6-yl)oxy)azetidin-1-yl)prop-2-en-1-one] | ≤ 150 | ≤ 150 |
| C=CC(=O)N1CCC(Oc2cc3c(Nc4cc(-c5ccc(C)cc5F)ccc4OC)ncnc3cc2OC)CC1 [Example 131, 1-(4-((4-((2′-fluoro-4-methoxy-4′-methyl-[1,1′-biphenyl]-3-yl)amino)-7-methoxy-quinazolin-6-yl)oxy)piperidin-1-yl)prop-2-en-1-one] | 150 to 1000 | 150 to 1000 |

More lines, main results first:

| GI50 [2] [nM] | SMILES | GI50 [1] [nM] |
| --- | --- | --- |
| ≤ 150 | C=CC(=O)N1CCC(Oc2cc3c(Nc4cc(-c5ccco5)ccc4OC4CCN(C)C4)ncnc3cc2OC)CC1 (stereo not drawn) [Example 251, 1-(4-((4-((5-(furan-2-yl)-2-((1-methylpyrrolidin-3-yl)oxy)phenyl)amino)-7-methoxyquinazolin-6-yl)oxy)piperidin-1-yl)prop-2-en-1-one] | ≤ 150 |
| ≤ 150 | C=CC(=O)Nc1cc2c(Nc3cc(-c4ccco4)ccc3OC)ncnc2cc1OCCN1CCOCC1 [Example 271, N-(4-((5-(furan-2-yl)-2-methoxyphenyl)amino)-7-(2-morpholinoethoxy)quinazolin-6-yl)acrylamide] | ≤ 150 |
| ≤ 150 | C=CC(=O)N1CCC(Oc2cc3c(Nc4cc(-c5ccco5)ccc4OC)ncnc3cc2OCC)CC1 [Example 238, 1-(4-((7-ethoxy-4-((5-(furan-2-yl)-2-methoxyphenyl)amino)quinazolin-6-yl)oxy)piperidin-1-yl)prop-2-en-1-one] | ≤ 150 |
| 150 to 1000 | C=CC(=O)N1CCC(Oc2cc3c(Nc4cc(-c5ccc(F)nc5)ccc4OC)ncnc3cc2OC)CC1 [Example 133, 1-(4-((4-((5-(6-fluoropyridin-3-yl)-2-methoxyphenyl)amino)-7-methoxy-quinazolin-6-yl)oxy)piperidin-1-yl)prop-2-en-1-one] | 150 to 1000 |
